In patent US20260357349A1, “METHODS OF IDENTIFYING AND TREATING CANCER” (Agency for Science, Technology and Research, priority 2022, published 2026):

How the values were obtained:
786-O tumors = test: Tumor formation and survival of NSG mice bearing 786-O isogenic cells; assay type: in vivo; details: for median survival: 0.5 mg/kg bortezomib arm n=10; for HR: bortezomib vs PBS, p=3E-6, log rank test
Description: Colony formation of parental (WT) or PBRM1 knockout (KO) 786-O cells expressing shRNA against non-targeting control (NC), RELA, or NFKB1 cultured with a) 10% or b) 2% serum. c) Gene expression changes of NF-κB target genes in 786-O cells treated with 0.006 μM bortezomib (BTZ) or 0.6 µM Bay 11-7085 for 24 hours (n=3 technical replicates). * p-value<0.05 (two-sided t-test). […] A positive log fold change refers to gain in bortezomib treatment over DMSO. g) Colony formation of 786-O isogenic cells and h) NCC432 isogenic cells treated with bortezomib for a week. Tumor formation of isogenic 786-O cells (i) and NCC432 cells (j) treated with PBS control or 0.5 mg/kg bortezomib (BTZ) in NSG mice. (n=10 tumors per group for 786-O, and n=16 tumors for NCC432 PBS EV group and 12 tumors for NCC432 PBS PBRM1 group and 14 tumors for both NCC432 EV and PBRM1 BTZ groups). Data are presented as mean values+/−SEM. k) Model for the study.
Data are presented as median+/−25%. Lower whisker is smallest observation greater than or equal to 25% quantile-1.5*interquantile range (IQR). Upper whisker represents the largest observation less than or equal to 75%+1.5*IQR. Amount of normalized RELA protein in the c) input or d) co-immunoprecipitated with SMARCA4 from 3 independent runs. Data are presented as mean values+/−SD. e) Tornado plots of RELA and SMARCA4 ChIP-seq signals in parental 786-0 or PBRM1-KO 786-O cells treated with DMSO or 0.005 μM bortezomib for 9 hours. f) Kaplan-Meier curves of NSG mice bearing 786-O isogenic cells treated with PBRM1 control or 0.5 mg/kg bortezomib (WT: n=10 PBS arm, median survival=39 days; n=10 bortezomib arm, median survival=52 days, HR=4.1, p=3E-6, log rank test; KO: n=10 PBS arm, median survival=35 days, n=10 bortezomib arm, median survival=66 days, HR=4.1, p=3E-6, log rank test). g) Kaplan-Meier curves of NSG mice bearing NCC432 isogenic cells treated with PBRM1 control or 0.5 mg/kg bortezomib (EV: n=16 PBS arm, median survival=42 days; n=14 bortezomib arm, median survival=49 days, HR=2.5, p=0.0009, log rank test; PBRM1: n=12 PBS arm, median survival=55 days; n=14 bortezomib arm, median survival=58 days, HR=1.2, p=0.5, log rank test). h) 786-O PBRM1 WT or KO cells were screened against the high-specific SGC epigenetic probe collection and cell viability was measured by colony formation after 1 week of treatment relative to DMSO control.
All animal studies were conducted in compliance with animal protocols approved by Institutional Animal Care and Use Committee (IACUC) of Singapore. Female NOD/SCID mice (8-10 week old) were implanted subcutaneously with 1×10^6 786-0 cells with either wildtype PBRM1 or PBRM1 knocked out subcutaneously. Male NSG mice (The Jackson laboratory) were implanted with 1×10^6 A498, NCC2112 or NCC432 with or without PBRM1. Tumor volume was monitored every 3-4 days. Tumor volume was calculated as (length×width×width)×π/6. Animals were sacrificed when the tumor volume exceeded 2000 mm^3.
Bortezomib […] was given twice weekly (day1, day 4) to male NSG mice (The Jackson laboratory) via the tail vein. Tumor volume and body weight were monitored every 3-4 days.

[1] = system: SMARCA4 and RELA interaction; test: Co-immunoprecipitation of RELA with SMARCA4 after bortezomib; assay type: cell-based, human; details: bortezomib treatment
Source text: Data are presented as median+/−25%. Lower whisker is smallest observation greater than or equal to 25% quantile-1.5*interquantile range (IQR). Upper whisker represents the largest observation less than or equal to 75%+1.5*IQR. Amount of normalized RELA protein in the c) input or d) co-immunoprecipitated with SMARCA4 from 3 independent runs. […]

CC(C)C[C@H](NC(=O)[C@H](Cc1ccccc1)NC(=O)c1cnccn1)B(O)O [bortezomib]
survival, mice bearing PB1-deficient vs PB1-proficient cells (786-O tumors; 0.5 mg/kg bortezomib): survived for a longer duration | tumor response, PB1-deficient vs PB1-proficient isogenic cells (786-O tumors; 0.5 mg/kg bortezomib, NSG mice): responded better | median survival (786-O tumors; 786-O KO, PBS arm 35 days): 66 days | HR (786-O tumors; 786-O KO): 4.1 | median survival (786-O tumors; 786-O WT, PBS arm 39 days): 52 days | HR (786-O tumors; 786-O WT): 4.1 | selectivity for PB1-deficient tumors (summary) (786-O tumors; 786-O and NCC432, Example 2 summary): selectively targets PB1-deficient tumors | effect on interaction between SMARCA4 and RELA [1]: did not significantly affect
